According to PubChem BioAssay AID1996:
Values after ≈ are worked out from the molar mass of the structure shown.

Conditions: buffer; pH 7.4; 200.0 µM

| solubility kinetic | SMILES |
| --- | --- |
| 18.5 µg/mL (≈ 52.6 µM) | Cc1c(C(=O)OC(C)C(=O)N(C)Cc2ccccc2)oc2ccccc12 (centres undefined) |
| > 39.6 µg/mL | CCCCc1ccc(NC(=O)N[C@@H](C)C(=O)O)cc1 |
| 41.7 µg/mL (≈ 138 µM) | COCC(=O)Nc1ccc2nc3n(c(=O)c2c1)CCCCC3 |
| 1.7 µg/mL (≈ 5.57 µM) | C=CCNC(=O)C1CC1(c1cccc(C)c1)c1cccc(C)c1 (centres undefined) |
| 3 µg/mL (≈ 8.86 µM) | O=S(=O)(Cc1noc(-c2ccc(Cl)cc2)n1)Cc1ccco1 |
| > 46.4 µg/mL | COc1ccc([N+](=O)[O-])cc1NC(=O)CCN1CCOCC1 |
| > 50 µg/mL | Cc1ccc(CN(C(=O)c2ccco2)C2CCS(=O)(=O)C2)cc1 (centres undefined) |
| > 47.6 µg/mL | COc1ccc(C(=O)O)cc1S(=O)(=O)N1CCSCC1 |
| 21.6 µg/mL (≈ 117 µM) | c1ccc2[nH]c(-c3cnco3)cc2c1 |
| 57 µg/mL (≈ 149 µM) | O=C(Nc1ccc(F)cc1)N1CCCN(c2nccc(C(F)(F)F)n2)CC1 |
| 37.8 µg/mL (≈ 124 µM) | COC(=O)c1ccc(COC(=O)c2cccnc2Cl)cc1 |
| > 39.5 µg/mL | COc1cc(C=O)ccc1OCC(=O)N1CCCC1 |
| > 42.8 µg/mL | O=C1CC2c3ccccc3C1C1C(=O)N(CCO)C(=O)C21 (centres undefined) |
| < 0.4 µg/mL | Cc1ccc(C(=O)Nc2nc3ccc(S(C)(=O)=O)cc3s2)cc1C |
| 47.4 µg/mL (≈ 146 µM) | COCCCNc1nc(N)c([N+](=O)[O-])c(N2CCCCCC2)n1 |
| 11 µg/mL (≈ 31.6 µM) | Cc1ccccc1N1CCN(Cc2nc(Cc3ccccc3)no2)CC1 |
| > 40.5 µg/mL | O=[N+]([O-])c1cccc(OCc2cn3cccnc3n2)c1 |
| 19 µg/mL (≈ 56.2 µM) | O=C(COC(=O)c1cccc(Br)c1)NCc1ccco1 |
| > 49.1 µg/mL | Cc1cc(C(=O)N(C)CC(=O)Nc2ccc(F)c(F)c2F)no1 |
| 2.7 µg/mL (≈ 9.3 µM) | CC(C)c1ccccc1NC(=O)Nc1ccc(F)cc1F |
| > 41.6 µg/mL | CCOC(=O)C1=C(O)CSC1=Nc1ccc(C)cc1 |
| 33.4 µg/mL (≈ 137 µM) | CCC(=O)Nc1cc2[nH]c(=O)cc(C)c2cc1C |
| 1 µg/mL (≈ 3.17 µM) | COc1ccccc1CCNC(=O)c1csc2c1CCCC2 |
| > 49.1 µg/mL | CC(C)c1ccc([N+](=O)[O-])cc1S(=O)(=O)N1CCN(C)CC1 |

| solubility kinetic | SMILES |
| --- | --- |
| 42.7 µg/mL (≈ 144 µM) | COc1ccc(N(C)C(=O)c2sc(Cl)nc2C)cc1 |
| > 57.4 µg/mL | COc1ccc(NC(=O)CN(C)CC(=O)N2CC(=O)Nc3ccccc32)cc1 |
| > 34.7 µg/mL | O=c1[nH]c(N2CCOCC2)nc2ccccc12 |
| > 39.6 µg/mL | COC(=O)c1ccccc1CC1SC(N)=NC1=O (centres undefined) |
| > 48.1 µg/mL | COc1cc(CNC2CCCCCCC2)ccc1OCC(N)=O |
| 31.6 µg/mL (≈ 111 µM) | COc1cccc2cc(C(=O)NC3CC4CCC3C4)oc12 (centres undefined) |
| 8.8 µg/mL (≈ 26.6 µM) | O=C(COC(=O)/C=C/c1ccccc1)NC(=O)NC1CCCCC1 |
| > 40.4 µg/mL | O=C(Cn1nc(C(F)F)cc1C1CC1)N1CCCC1 |
| > 34.1 µg/mL | O=S1(=O)C[C@@H](O)[C@@H](Nc2ccccc2)C1 |
| > 48.1 µg/mL | CNC(=O)CC1C(=O)N(C)C(=S)N1NC(=O)c1ccccc1 (centres undefined) |
| < 0.6 µg/mL | Cc1cc(C)c(C)c(S(=O)(=O)N2CCSCC2)c1C |
| 6.2 µg/mL (≈ 21.9 µM) | COc1cccc(CNc2nc3ccccc3n2C)c1O |
| > 40.4 µg/mL | CC(C)n1cnc2cc(NC(=O)c3ccco3)ccc21 |
| 28.2 µg/mL (≈ 137 µM) | O=C(O)c1csc(-c2ccccc2)n1 |
| 32.6 µg/mL (≈ 141 µM) | CC(=O)c1ccc(NC(=O)C2CCCC2)cc1 |
| 30.7 µg/mL (≈ 110 µM) | CCC(CC)NC(=O)COc1ccc(OC)cc1C=O |
| 13 µg/mL (≈ 45.4 µM) | CC1CCc2sc(C(=O)NCc3ccccn3)cc2C1 (centres undefined) |
| > 37.4 µg/mL | CC(c1ccccc1)N1C(=O)OC(C)(C)C1(C)O (centres undefined) |
| > 38.7 µg/mL | COc1nc(-c2ccccc2)nc(C)c1CC(=O)O |
| 39.8 µg/mL (≈ 148 µM) | O=C(c1ccc(F)cc1)N1CCC(c2ccccc2)C1 (centres undefined) |
| 26.7 µg/mL (≈ 85.2 µM) | CC(C)c1ccc(OCc2ccc(C(=O)N3CCCC3)o2)cc1 |
| > 49.6 µg/mL | CCOc1ccc(C2C3=C(CCCC3=O)OC(N)=C2[N+](=O)[O-])cc1 (centres undefined) |
| > 36.9 µg/mL | Cc1ccccc1N1C(=O)C2CCCN2C1=S (centres undefined) |
| 28.3 µg/mL (≈ 102 µM) | CCCNC(=S)N1CCC(Cc2ccccc2)CC1 |

| SMILES | solubility kinetic |
| --- | --- |
| COc1ccccc1CN1CCCCCC1.O=C(O)C(=O)O | 40.8 µg/mL |
